Read-outs that look alike come from different tables or passages of the source.
What was measured:
[1] = target: T1, κOR (Homo sapiens, UniProt P41145); experiment: cell-based; assay type: cell-based; conditions: for Emax: read-out: κOR cAMP inhibition Emax ± SEM (%)
T1 construct: host or cells: CHO-K1

[2] = target: T2, μOR (Homo sapiens, UniProt P35372); experiment: cell-based; assay type: cell-based; conditions: for Emax: read-out: μOR cAMP inhibition Emax ± SEM (%)
T2 construct: host or cells: CHO-K1
T2 sequence (P35372 whole entry): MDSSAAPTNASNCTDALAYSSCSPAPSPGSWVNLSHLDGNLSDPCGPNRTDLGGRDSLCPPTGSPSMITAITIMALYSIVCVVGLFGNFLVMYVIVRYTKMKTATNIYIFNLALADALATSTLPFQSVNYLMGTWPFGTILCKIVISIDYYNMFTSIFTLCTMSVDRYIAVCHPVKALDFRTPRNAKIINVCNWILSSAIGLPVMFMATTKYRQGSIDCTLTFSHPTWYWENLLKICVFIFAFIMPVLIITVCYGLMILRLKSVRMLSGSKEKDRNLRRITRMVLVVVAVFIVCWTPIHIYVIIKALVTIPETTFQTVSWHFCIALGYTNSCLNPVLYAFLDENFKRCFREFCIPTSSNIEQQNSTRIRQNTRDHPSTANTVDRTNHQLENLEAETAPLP

[3] = target: HERG (Homo sapiens, UniProt Q12809); conditions: data from reference 40; cited from earlier work
Sequence of HERG (Q12809 whole entry): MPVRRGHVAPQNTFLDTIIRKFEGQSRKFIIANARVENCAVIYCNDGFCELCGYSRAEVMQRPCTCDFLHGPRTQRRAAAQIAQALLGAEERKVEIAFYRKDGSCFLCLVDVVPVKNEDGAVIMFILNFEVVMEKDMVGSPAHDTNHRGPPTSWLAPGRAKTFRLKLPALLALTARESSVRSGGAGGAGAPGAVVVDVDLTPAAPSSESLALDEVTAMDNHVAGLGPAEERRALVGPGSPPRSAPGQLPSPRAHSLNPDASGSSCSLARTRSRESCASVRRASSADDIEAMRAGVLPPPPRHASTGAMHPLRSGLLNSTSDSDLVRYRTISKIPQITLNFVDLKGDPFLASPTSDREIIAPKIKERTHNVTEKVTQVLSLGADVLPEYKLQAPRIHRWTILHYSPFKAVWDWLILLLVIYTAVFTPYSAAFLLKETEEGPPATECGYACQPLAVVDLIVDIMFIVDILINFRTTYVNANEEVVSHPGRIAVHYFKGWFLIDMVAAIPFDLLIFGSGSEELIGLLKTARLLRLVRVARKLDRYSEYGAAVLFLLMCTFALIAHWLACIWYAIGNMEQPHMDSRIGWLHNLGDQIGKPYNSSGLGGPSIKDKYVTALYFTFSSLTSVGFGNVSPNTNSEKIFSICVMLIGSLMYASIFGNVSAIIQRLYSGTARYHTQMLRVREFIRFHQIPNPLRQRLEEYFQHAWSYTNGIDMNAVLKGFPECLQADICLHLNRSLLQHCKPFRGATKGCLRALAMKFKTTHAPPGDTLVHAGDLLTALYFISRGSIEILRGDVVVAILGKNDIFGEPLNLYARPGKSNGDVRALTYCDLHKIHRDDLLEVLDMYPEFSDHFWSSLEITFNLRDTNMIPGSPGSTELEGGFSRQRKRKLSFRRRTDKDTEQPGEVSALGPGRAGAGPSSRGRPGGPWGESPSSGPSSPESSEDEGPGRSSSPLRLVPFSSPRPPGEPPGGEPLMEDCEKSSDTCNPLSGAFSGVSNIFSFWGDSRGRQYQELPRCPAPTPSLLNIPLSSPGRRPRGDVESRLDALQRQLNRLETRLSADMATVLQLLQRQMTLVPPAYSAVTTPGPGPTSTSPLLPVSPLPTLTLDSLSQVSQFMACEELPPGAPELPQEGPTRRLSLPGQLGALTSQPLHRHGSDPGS

[4] = system: 320 non-olfactory GPCRs; experiment: PRESTO-Tango GPCRome screen of βArr2 recruitment; assay type: cell-based; conditions: 3 μM, FIG. 7
[5] = target: T1, κOR; experiment: PathHunter β-arrestin-2 recruitment assay at the κOR; assay type: cell-based; conditions: FIG. 6
Description: Cell Lines and Cell Culture. To perform the HitHunter cAMP accumulation assay, Chinese hamster ovary cells (CHO-K1) stably expressing human μ-opioid receptor (OPRM1, catalog no. 95-0107C2, DiscoverX, Fremont, CA, USA), K-opioid receptor (OPRK1, catalog no. 95-0088C2, DiscoverX, Fremont, CA, USA), or 6-opioid receptor (OPRD1, catalog no. 95-0108C2, DiscoverX, Fremont, CA, USA) were maintained at 80% confluence in F-12 media supplemented with 10% fetal bovine serum, 1% penicillin/streptomycin/L-glutamine, and 800 μg/mL G418. To perform the PathHunter β-arrestin-2 recruitment assay, U2OS-human κ opioid receptor (κOR) cells stably expressing the κOR and β-arrestin-2 (RRID:CVCL_LA97, DiscoverX, Fremont, CA, USA) were maintained in McCoy's 5A media supplemented with 10% FBS and containing 500 μg/mL geneticin and 250 μg/mL hygromycin. All cells were grown 37° C. under 5% CO2 in a humidified incubator under sterile conditions in T75 flasks. During passaging, cells were dislodged from the flask following a 3-5 min incubation with 0.25% trypsin or non-enzymatic detachment reagent and subcultivated at ratios of 1:10 (CHO) and 3:10 (U2OS).
PathHunter β-arrestin-2 Recruitment Assay. The R-arrestin-2 recruitment assay was performed using U2OS-human (κOR) PathHunter R-arrestin-2 cells (DiscoverX) as previously described.^77

[6] = read-out: μOR cAMP inhibition EC50
[7] = read-out: κOR cAMP inhibition EC50

T1 sequence (P41145 whole entry): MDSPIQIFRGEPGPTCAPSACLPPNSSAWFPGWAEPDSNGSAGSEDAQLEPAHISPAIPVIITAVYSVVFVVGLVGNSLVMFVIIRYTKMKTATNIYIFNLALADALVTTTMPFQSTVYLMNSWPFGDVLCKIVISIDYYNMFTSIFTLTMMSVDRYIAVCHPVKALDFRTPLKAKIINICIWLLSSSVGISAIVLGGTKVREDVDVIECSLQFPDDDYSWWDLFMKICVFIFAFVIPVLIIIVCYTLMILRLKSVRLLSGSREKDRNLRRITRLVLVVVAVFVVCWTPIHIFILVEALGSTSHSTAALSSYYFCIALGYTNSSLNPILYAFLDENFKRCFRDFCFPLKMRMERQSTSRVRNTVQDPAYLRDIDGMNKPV

Row | Molecule | EC50 [1] [nM] | Emax [1] [%] | EC50 [2] [nM] | EC50 [2, 6] [nM] | Emax [2] [%] | κOR cAMP inhibition pEC50 ± SEM [1] | EC50 [1, 7] [nM] | μOR cAMP inhibition pEC50 ± SEM [2] | also measured
1 | CC=C1C[N+]2(C)CCC34C(=C(C(=O)OC)C1CC32)Nc1ccc(Br)cc14 (stereo not drawn) [Compound 23, 10-Bromo-N-4-methylakuammicine] | 940 | 102 ± 7 | > 10000 | > 10000 | < 10 | – | – | – | –
2 | COC(=O)C1=C2Nc3ccccc3[C@@]23CCN2C[C@@](O)([C@@H](C)O)[C@@H]1C[C@H]23 [Compound 10, 19R,20R-Dihydroxyakuammicine] | – | – | – | – | – | – | – | – | agonist activity at the κOR [1]: no agonist activity; agonist activity at the μOR [2]: no agonist activity
3 | C/C=C1/CN2CC[C@]34C(=C(C(=O)OC)[C@H]1C[C@H]23)Nc1ccccc14 [Compound 1, Akuammicine, reference compound] | – | 91 ± 7 | – | – | – | – | – | – | Ki (nM) at HERG [3]: — (“—” indicates compound produced less than 50% displacement of radioligand in primary binding screen at 10 μM.)
4 | C/C=C1/C[N+]2(C)CC[C@]34C(=C(C(=O)OC)[C@H]1C[C@@H]32)Nc1ccccc14 (stereo partly drawn) [Compound 16, N-4-Methylakuammicine] | – | < 10 | – | – | < 10 | – | – | – | –
5 | CC[C@@H]1CN2CC[C@]34C(=C(C(=O)OC)[C@H]1C[C@H]23)Nc1ccccc14 [Compound 13, 19,20-dihydroakuammicine] | – | – | – | > 10000 | – | 5.8 ± 0.1 | 1600 | — (key: — = no activity observed at 10 μM.) | κOR cAMP inhibition Emax ± SEM (%) [1]: 99 ± 9%; μOR cAMP inhibition Emax ± SEM (%) [2]: <10%
6 | C=CC[N+]12CCC34C(=C(C(=O)OC)C(CC31)C(=CC)C2)Nc1ccccc14 (stereo not drawn) [Compound 17, N-4-Allylakuammicine] | > 10000 | < 10 | > 10000 | > 10000 | < 10 | – | > 10000 | – | –
7 | CC=C1CN2CCC34C(=C(C(=O)OC)C1CC23)Nc1ccc(C#N)cc14 (stereo not drawn) [Compound 7, 10-Cyanoakuammicine] | 81 | 102 ± 6 | > 10000 | > 10000 | < 10 | – | – | – | agonist activity at the μOR [2]: without activating the μOR
8 | C/C=C1/C[N+]2(CC3CC3)CC[C@]34C(=C(C(=O)OC)[C@H]1C[C@@H]32)Nc1ccc(Br)cc14 (stereo partly drawn) [Compound 25, 10-Bromo-N-4-cyclopropylmethylakuammicine] | – | 94 ± 5 | – | – | < 10 | 6.7 ± 0.1 | 210 | – | –
9 | C/C=C1/CN2CC[C@]34C(=C(C(=O)OC)[C@H]1C[C@H]23)Nc1ccc(-c2ccsc2)cc14 [Compound 6, 10-(3-Thienyl)akuammicine] | – | 104 ± 3 | 720 to 840 | 840 | 107 ± 3 | 8.1 ± 0.1 | 7.7 | 6.1 ± 0.1 | –
10 | CC=C1CN2CCC34c5cc(I)ccc5NC3C(C(=O)OC)C1CC24 (stereo not drawn) [Compound 22, 10-Iodo-2,16-dihydroakuammicine] | 24 | – | > 10000 | > 10000 | – | – | – | – | –
11 | CC=C1CN2CCC34C(=C(C(=O)OC)C1CC23)Nc1ccc([N+](=O)[O-])cc14 (stereo not drawn) [Compound 8, 10-Nitroakuammicine] | 160 | 96 ± 5 | 4000 | – | < 10 | – | – | – | Selectivity index = μOR EC50/κOR EC50 [1]: 25; βArr recruitment against GPCRome [4]: induced recruitment of a number of non-opioid targets
12 | CC=C1C[N+]2(CC3CC3)CCC34C(=C(C(=O)OC)C1CC32)Nc1ccccc14 (stereo not drawn) [Compound 19, N-4-Cyclopropylmethylakuammicine] | 4700 | 113 ± 24 | > 10000 | > 10000 | < 10 | – | – | – | fold reduced κOR potency compared to 1 [1]: about 4 fold
13 | C/C=C1/CN2CC[C@]34C(=C(C(=O)OC)[C@H]1C[C@H]23)Nc1ccc(-c2ccoc2)cc14 [Compound 5, 10-(3-Furanyl)akuammicine] | – | 102 ± 2 | 720 to 840 | 720 | 99 ± 12 | 9.1 ± 0.1 | 0.88 | 6.1 ± 0.2 | fold increase in κOR potency relative to 1 [1]: > 1,300; βArr2 recruitment compared with U50,488 [5]: significantly less recruitment of βArr2 than U50488 at concentrations <10 μM
14 | CCC1CN2CCC34c5ccccc5NC3C(C(=O)OC)C1CC24 (stereo not drawn) [Compound 15, 2,16,19,20-tetrahydroakuammicine] | > 10000 | < 10 | > 10000 | > 10000 | < 10 | – | > 10000 | – | agonist activity at the κOR [1]: all κOR agonist activity is abolished or significantly diminished
15 | C/C=C1/C[N+]2(Cc3ccccc3)CC[C@]34C(=C(C(=O)OC)[C@H]1C[C@@H]32)Nc1ccccc14 (stereo partly drawn) [Compound 20, N-4-Benzylakuammicine] | – | < 10 | – | 2300 | 112 ± 6 | – | – | 5.6 ± 0.1 | –
16 | C=CC[N+]12CCC34C(=C(C(=O)OC)C(CC31)C(=CC)C2)Nc1ccc(Br)cc14 (stereo not drawn) [Compound 24, 10-Bromo-N-4-allylakuammicine] | 650 | 100 ± 7 | > 10000 | > 10000 | < 10 | – | – | – | –
17 | 19-Hydroxyalstolucine [Compound 12] | – | – | – | > 10000 | – | — (key: — = no activity observed at 10 μM.) | > 10000 | — (key: — = no activity observed at 10 μM.) | agonist activity at the κOR [1]: no agonist activity; κOR cAMP inhibition Emax ± SEM (%) [1]: <10%; agonist activity at the μOR [2]: no agonist activity; μOR cAMP inhibition Emax ± SEM (%) [2]: <10%
18 | C/C=C1/C[N+]2(CCC)CC[C@]34C(=C(C(=O)OC)[C@H]1C[C@@H]32)Nc1ccccc14 (stereo partly drawn) [Compound 18, N-4-Propylakuammicine] | – | < 10 | – | – | < 10 | – | – | – | –
19 | C/C=C1/CN2CC[C@]34c5ccccc5NC3C(C(=O)OC)[C@H]1C[C@H]24 (stereo partly drawn) [Compound 14, 2,16-dihydroakuammicine] | > 10000 | < 10 | > 10000 | > 10000 | < 10 | – | > 10000 | – | agonist activity at the κOR [1]: all κOR agonist activity is abolished or significantly diminished
20 | CCC1CN2CCC34C(=C(C(=O)OC)C1CC23)Nc1ccc(Br)cc14 (stereo not drawn) [Compound 27, 10-Bromo-19,20-dihydroakuammicine] | – | 100 ± 5 | – | 1100 | 107 ± 5 | 7.5 ± 0.1 | 31 | 6.0 ± 0.1 | Selectivity index = μOR EC50/κOR EC50 [1]: 35
21 | C/C=C1/CN2CC[C@]34c5cc(Br)ccc5NC3C(C(=O)OC)[C@H]1C[C@H]24 (stereo partly drawn) [Compound 21, 10-Bromo-2,16-dihydroakuammicine] | – | 100 ± 4 | – | – | – | 7.3 ± 0.1 | 47 | – | –
22 | C/C=C1/CN2CC[C@]34C(=C(C(=O)OC)[C@H]1C[C@H]23)Nc1ccc(-c2ccccc2)cc14 [Compound 4, 10-Phenylakuammicine] | – | 101 ± 2 | 720 to 840 | 780 | 106 ± 6 | 7.8 ± 0.1 | 15 | 6.1 ± 0.1 | –

Source: patent publication US20250051332A1 (priority 2022, published 2025)
